In one data set the target is T1, ASBT (Homo sapiens, UniProt Q12908).
T1 construct: stably transfected with the full open reading frames of human NTCP, ASBT, SOAT, OATP1B1, OATP1B3, OATP2B1, and murine Asbt (mAsbt); expressed in transfected cells; host or cells: HEK293 (Flp-In), stably transfected, tetracycline-induced
T1 sequence (Q12908 1-348): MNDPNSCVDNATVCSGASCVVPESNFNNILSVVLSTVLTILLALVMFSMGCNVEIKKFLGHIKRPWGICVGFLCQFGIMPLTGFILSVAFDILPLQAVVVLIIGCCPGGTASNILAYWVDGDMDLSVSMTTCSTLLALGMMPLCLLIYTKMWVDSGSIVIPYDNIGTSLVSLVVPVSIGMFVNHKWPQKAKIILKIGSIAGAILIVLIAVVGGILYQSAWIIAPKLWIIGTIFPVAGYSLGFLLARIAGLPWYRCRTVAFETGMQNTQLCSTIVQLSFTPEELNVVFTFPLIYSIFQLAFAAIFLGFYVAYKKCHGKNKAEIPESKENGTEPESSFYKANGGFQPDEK
Nature of the data set: Transport inhibition and recovery assay (inhibitor washout) in ASBT-HEK293 cells. The format is cell-based. The settings on record: 3 μM inhibitor 5 min; for ASBT inhibition pattern after inhibitor washout and inhibitor-free incubation: recovery time up to 240 min. The procedure: HEK293 cells stably expressing ASBT were seeded onto poly-L-lysine-coated 96-well plates, induced with 1 μg/ml tetracycline, and grown to confluence over 72 h at 37°C. Non-carrier-expressing HEK293 cells were used as control. Then, cells were washed with tempered (37°C) PBS and equilibrated for 5 min with STB. […] After inhibitor preincubation, cells were washed with tempered (37°C) PBS and further incubated in inhibitor-free DMEM (Thermo Fisher Scientific) for 30, 60, 120, or 240 min at 37°C. […] Finally, cell associated radioactivity was determined using the MicroBeta2 liquid scintillation counter (Revvity). For each inhibitor, the mean values from noncarrier-expressing HEK293 cells were set to 0% and transport measurements in the absence of inhibitor (solvent control) were set to 100%.
In the second setup, the inhibitor was thoroughly washed out after the preincubation phase and cells were placed on inhibitor-free medium for different time intervals of 0–240 min (indicated by “recovery time” in Fig. 7A).

Data set [1] addresses T2, NTCP (Homo sapiens, UniProt Q14973).
T2 construct: stably transfected with the full open reading frames of human NTCP, ASBT, SOAT, OATP1B1, OATP1B3, OATP2B1, and murine Asbt (mAsbt); expressed in transfected cells; host or cells: HEK293 (Flp-In), stably transfected, tetracycline-induced
T2 sequence (Q14973 1-349): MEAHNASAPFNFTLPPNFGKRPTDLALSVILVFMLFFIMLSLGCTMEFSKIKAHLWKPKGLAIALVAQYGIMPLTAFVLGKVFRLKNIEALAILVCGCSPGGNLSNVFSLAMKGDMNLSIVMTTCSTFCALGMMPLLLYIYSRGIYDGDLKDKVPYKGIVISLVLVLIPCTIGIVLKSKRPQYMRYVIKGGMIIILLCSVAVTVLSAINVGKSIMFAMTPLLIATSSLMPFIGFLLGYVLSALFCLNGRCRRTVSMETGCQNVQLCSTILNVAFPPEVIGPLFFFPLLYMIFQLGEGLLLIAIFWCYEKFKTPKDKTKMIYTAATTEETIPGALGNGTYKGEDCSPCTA
Nature of the data set: [3H]rosuvastatin transport inhibition assay in NTCP-HEK293 cells. The settings on record: 1 μM [3H]rosuvastatin, 10 min; two independent experiments; read-out: IC50 NTCP [3H]rosuvastatin uptake. The format is cell-based. An excerpt:
(§1) Human embryonic kidney HEK293 cells, stably transfected with the full open reading frames of human NTCP, ASBT, SOAT, OATP1B1, OATP1B3, OATP2B1, and murine Asbt (mAsbt) were used as reported ([18], [20], [21], [22], [23]). The NTCP, ASBT, and mAsbt constructs were C-terminally tagged with the FLAG epitope, and the SOAT construct was C-terminally tagged with green fluorescent protein. Non-transfected Flp-In HEK293 cells (Thermo Fisher Scientific) served as the control. All cell lines were maintained at 37°C, 5% CO2 and 95% humidity in DMEM/F-12 medium (Thermo Fisher Scientific) supplemented with 10% fetal calf serum (Sigma-Aldrich), 4 mM L-glutamine (PAA) and penicillin/streptomycin (PAA). […]
(§2) Cells were seeded onto poly-L-lysine-coated 96-well plates, induced with 1 μg/ml tetracycline, and grown to confluence over 72 h at 37°C. […] Then, the cell-associated radioactivity of the respective tritium-labeled substrate or ligand was quantified by liquid scintillation counting using MicroScint-20 scintillation cocktail (Revvity) in a Packard Microplate Scintillation Counter TopCount NXT (Packard Instrument Company). […] Finally, all net transport data were expressed as uptake or binding as % of control. […] From the specific uptake rates, Michaelis Menten Km values were calculated by non-linear regression analysis.

For data set [2], the target named is T2, NTCP. In words: [3H]preS1 peptide binding to NTCP-HEK293 cells. The settings on record: 5 nM [3H]preS1; two independent experiments.
Excerpt: as §1, §2

A further data set relates to OATP2B1. The settings on record: cited from earlier work.

Where “and” joins values, the source holds several entries; their conditions need not be identical. Equal entries are not always repeated.

Turning to `CCCCC1(CCCC)CS(=O)(=O)c2ccc(N(C)C)cc2[C@@H](c2ccc(OCCCC[N+]34CCN(CC3)CC4)cc2)[C@H]1O` [SC-435], at ASBT, the “ASBT inhibition pattern after inhibitor washout and inhibitor-free incubation” value is recorded as “intermediate inhibition pattern”.
Consider `CCCCC1(CCCC)CN(c2ccccc2)c2cc(SC)c(OCC(=O)N[C@@H](C(=O)NCC(=O)O)c3ccccc3)cc2S(=O)(=O)C1` [elobixibat], for which the half-maximal inhibitory concentration (IC50) was 19.2 µM and 11.9 µM on NTCP [1]; 147 µM and 36 µM on NTCP [2]. In addition, on ASBT, the “ASBT inhibition pattern after inhibitor washout and inhibitor-free incubation” value is on record as “intermediate inhibition pattern”.
For `CCCC[C@]1(CC)CS(=O)(=O)c2cc(CNC(CC(=O)O)CC(=O)O)c(OC)cc2[C@@H](c2ccccc2)N1` [linerixibat], the “ASBT transport activity recovered directly after inhibitor washout” value at ASBT (0 min recovery) is “about 37%”. On ASBT (30 min recovery), the “ASBT recovery after washout and 30 min in inhibitor-free medium” value is listed as “mostly recovered ASBT”. The “ASBT inhibition pattern after inhibitor washout and inhibitor-free incubation” value on ASBT is “quick and full recovery”. In addition, the “Substrate of OATP2B1” value in the data set on OATP2B1 is on record as “is not a substrate”.
Consider `CCCCC1(CCCC)CS(=O)(=O)c2ccc(N(C)C)cc2[C@@H](c2ccc(OCc3ccc(C[N+]45CCN(CC4)CC5)cc3)cc2)[C@H]1O` [maralixibat], for which the “ASBT inhibition pattern after inhibitor washout and inhibitor-free incubation” value on ASBT is on record as “retained full ASBT uptake inhibition”. Moreover, the “OATP2B1 inhibition (in words)” value in the data set with OATP2B1 (in vitro studies, ref EMA EPAR Product Information Maralixibat) was “Maralixibat is an OATP2B1 inhibitor based on in vitro studies. No potential for clinically relevant drug-drug interactions (DDI), but theoretical risk of interaction with substrates of this carrier”. The 50% inhibitory concentration (IC50) with OATP2B1 (in vitro, ref FDA NDA 214662 Livmarli, read-out: IC50 OATP2B1 inhibition) is 1.02 µM.
On to `CCCCC1(CCCC)CN(c2ccccc2)c2cc(SC)c(OCC(=O)N[C@@H](C(=O)N[C@@H](CC)C(=O)O)c3ccc(O)cc3)cc2S(=O)(=O)N1` [odevixibat], for which the IC50 at NTCP [1] was 6.6 µM and 5.4 µM; on NTCP [2] it was 144 µM and 15.9 µM. For the same compound, at ASBT, the “ASBT inhibition pattern after inhibitor washout and inhibitor-free incubation” value is listed as “retained full ASBT uptake inhibition”.

The term IC50 denotes the concentration needed to halve the response being measured.

The values are drawn from paper PMC12596218 (Journal of Lipid Research, 2025).
